Data reported in patent US10633419B2, “Immunomodulators” (BRISTOL-MYERS SQUIBB COMPANY, priority 2014, dated 2020).
Starred links: 1 amine or outer side, 2 acyl side, 3 side chain; linkers in the order of their positions; H or OH if unused. Positions of bridges follow the written chain, without caps; N, C: chain ends. Non-standard residues stand in square brackets, D forms with d. Residues, ends and D or L forms follow the SMILES beside them. Groups on a side chain read outwards from the residue. *: point of attachment. γGlu = O=C(O)[C@H](CCC(=O)[*:2])N[*:1]; Hyp = O=C(O)[C@@H]1C[C@@H](O)CN1; NHhexadecyl = CCCCCCCCCCCCCCCCN*; Myristoyl = CCCCCCCCCCCCCC(=O)*; NMeNle = CCCC[C@H](NC)C(=O)O; NMeA = CN[C@@H](C)C(=O)O

biological target: T1, PD-L1 (Homo sapiens, UniProt Q9NZQ7); test: PD-1/PD-L1 Homogenous Time-Resolved Fluorescence (HTRF) binding assay (PD-1-Ig/PD-L1-His); details: inhibition of PD-1-Ig binding to PD-L1-TVMV-His; value given as range class; read-out: HTRF IC50
T1 construct: hPDL1(19-239)-TVMV-His; made in house; host or cells: HEK293T
T1 sequence (Q9NZQ7 with tags, fused parts or gaps): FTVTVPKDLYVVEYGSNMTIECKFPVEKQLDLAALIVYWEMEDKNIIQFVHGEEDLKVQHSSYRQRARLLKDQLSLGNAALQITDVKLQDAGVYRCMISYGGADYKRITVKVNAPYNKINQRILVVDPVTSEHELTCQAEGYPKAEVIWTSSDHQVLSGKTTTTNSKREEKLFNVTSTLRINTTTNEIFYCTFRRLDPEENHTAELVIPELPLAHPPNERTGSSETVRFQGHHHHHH
In short: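 Inhibitors pre-incubated 15 min with PD-L1-His (10 nM final), then PD-1-Ig (20 nM final) added for 15 min in dPBS/0.1% BSA/0.05% Tween-20. Eu-cryptate anti-Ig (1 nM) and APC anti-His (20 nM) added, 30 min equilibration, 665/620 nm HTRF ratio read.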

IC50 [µM]	Compound
0.1 to 1.6	CCCCCCCCCCCCCC(=O)N[C@@H](CCC(=O)NCCCC[C@H](NC(=O)CNC(=O)CNC(=O)CNC(=O)CNC(=O)[C@@H]1CSCC(=O)N[C@@H](Cc2ccc(O)cc2)C(=O)N(C)[C@@H](C)C(=O)N[C@@H](CC(N)=O)C(=O)N2CCC[C@H]2C(=O)N[C@@H](Cc2cnc[nH]2)C(=O)N[C@@H](CC(C)C)C(=O)N2C[C@H](O)C[C@H]2C(=O)N[C@@H](Cc2c[nH]c3ccccc23)C(=O)N[C@@H](CO)C(=O)N[C@@H](Cc2c[nH]c3ccccc23)C(=O)N(C)[C@@H](CCCC)C(=O)N(C)[C@@H](CCCC)C(=O)N[C@@H](CCCNC(=N)N)C(=O)N1)C(N)=O)C(=O)O [Example 11114] ({CH2CO}-Y[NMeA]NPHL[Hyp]WSW[NMeNle][NMeNle]RCGGGGK([γGlu-Myristoyl])-NH2; thioether N-14)
0.1 to 1.6	CCCCCCCCCCCCCCCCNC(=O)CCCCCCCCCCNC(=O)[C@@H]1CSCC(=O)N[C@@H](Cc2ccc(O)cc2)C(=O)N(C)[C@@H](C)C(=O)N[C@@H](CC(N)=O)C(=O)N2CCC[C@H]2C(=O)N[C@@H](Cc2cnc[nH]2)C(=O)N[C@@H](CC(C)C)C(=O)N2C[C@H](O)C[C@H]2C(=O)N[C@@H](Cc2c[nH]c3ccccc23)C(=O)N[C@@H](CO)C(=O)N[C@@H](Cc2c[nH]c3ccccc23)C(=O)N(C)[C@@H](CCCC)C(=O)N(C)[C@@H](CCCC)C(=O)N[C@@H](CCCNC(=N)N)C(=O)N1 [Example 11115]
0.01 to 0.099	CCCCCCCCCCCCCC(=O)N[C@@H](CCC(=O)NCCCC[C@H](NC(=O)CNC(=O)CNC(=O)CNC(=O)[C@@H]1CSCC(=O)N[C@@H](Cc2ccc(O)cc2)C(=O)N(C)[C@@H](C)C(=O)N[C@@H](CC(N)=O)C(=O)N2CCC[C@H]2C(=O)N[C@@H](Cc2cnc[nH]2)C(=O)N[C@@H](CC(C)C)C(=O)N2C[C@H](O)C[C@H]2C(=O)N[C@@H](Cc2c[nH]c3ccccc23)C(=O)N[C@@H](CO)C(=O)N[C@@H](Cc2c[nH]c3ccccc23)C(=O)N(C)[C@@H](CCCC)C(=O)N(C)[C@@H](CCCC)C(=O)N[C@@H](CCCNC(=N)N)C(=O)N1)C(N)=O)C(=O)O [Example 11116] ({CH2CO}-Y[NMeA]NPHL[Hyp]WSW[NMeNle][NMeNle]RCGGGK([γGlu-Myristoyl])-NH2; thioether N-14)
0.1 to 1.6	CCCCCCCCCCCCCCCCNC(=O)[C@H](CC(=O)O)NC(=O)CCCCCCCCCCNC(=O)[C@@H]1CSCC(=O)N[C@@H](Cc2ccc(O)cc2)C(=O)N(C)[C@@H](C)C(=O)N[C@@H](CC(N)=O)C(=O)N2CCC[C@H]2C(=O)N[C@@H](Cc2cnc[nH]2)C(=O)N[C@@H](CC(C)C)C(=O)N2C[C@H](O)C[C@H]2C(=O)N[C@@H](Cc2c[nH]c3ccccc23)C(=O)N[C@@H](CO)C(=O)N[C@@H](Cc2c[nH]c3ccccc23)C(=O)N(C)[C@@H](CCCC)C(=O)N(C)[C@@H](CCCC)C(=O)N[C@@H](CCCNC(=N)N)C(=O)N1 [Example 11119]
0.1 to 1.6	CCCCCCCCCCCCCCCCNC(=O)[C@H](CC(=O)O)NC(=O)CNC(=O)CNC(=O)CNC(=O)[C@@H]1CSCC(=O)N[C@@H](Cc2ccc(O)cc2)C(=O)N(C)[C@@H](C)C(=O)N[C@@H](CC(=O)O)C(=O)N2CCC[C@H]2C(=O)N[C@@H](Cc2cnc[nH]2)C(=O)N[C@@H](CC(C)C)C(=O)N2C[C@H](O)C[C@H]2C(=O)N[C@@H](Cc2c[nH]c3ccccc23)C(=O)N[C@@H](CO)C(=O)N[C@@H](Cc2c[nH]c3ccccc23)C(=O)N(C)[C@@H](CCCC)C(=O)N(C)[C@@H](CCCC)C(=O)N[C@@H](CCCNC(=N)N)C(=O)N1 [Example 11120] ({CH2CO}-Y[NMeA]DPHL[Hyp]WSW[NMeNle][NMeNle]RCGGGD-NHhexadecyl; thioether N-14)
